According to patent US10344019B2 (priority 2010, dated 2019):
Like-named read-outs stand apart in the source and are kept apart here.

Key:
Assay type in all cases: cell-based
[1] = system: HCV 1a RLuc cells (dicistronic genotype 1a H77 replicon, RLuc reporter); experiment: microbe, parasite or virus in culture; details: Hepatitis C virus, read-out: 1a
Summary of the method: (§1)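 Replicons used: genotype 1b Con1, 1a H77, 2a JFH-1, and a 2a JFH-1 chimera with J6-strain NS5A (M31 present), all dicistronic.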

[2] = system: HCV 1b RLuc cells (dicistronic genotype 1b Con1 replicon, RLuc reporter); experiment: microbe, parasite or virus in culture; details: Hepatitis C virus, read-out: 1b (nM)
Summary of the method: as §1

[3] = system: HCV 2a JFH-1 Rluc cells (dicistronic genotype 2a JFH-1 replicon, RLuc reporter); experiment: microbe, parasite or virus in culture; details: Hepatitis C virus, genotype 2a JFH-1 replicon, read-out: 2a JFH
Summary of the method: as §1

[4] = system: HCV 3a RLuc cells (NS5A chimeric genotype 1b Con1 replicon with consensus genotype 3a NS5A gene); experiment: microbe, parasite or virus in culture; details: Hepatitis C virus
Summary of the method: (§2)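 Replicon cells stably carrying the listed RLuc-encoding dicistronic replicons were seeded and treated with DMSO serial dilutions of compound (10 mM stocks) diluted into culture medium. After 72 h, cells were lysed and Renilla luciferase activity measured. EC50 was derived by non-linear regression.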

[5] = system: HCV 4a Rluc cells (NS5A chimeric genotype 1b Con1 replicon with genotype 4a NS5A gene); experiment: microbe, parasite or virus in culture; details: Hepatitis C virus, read-out: 4a
Summary of the method: as §2

[6] = system: HCV 2a Rluc cells (NS5A chimeric genotype 2a JFH-1 replicon with genotype 2a J6 strain NS5A gene, M31 present); experiment: HCV replicon reporter assay, genotype 2a J6 (M31 present); details: Hepatitis C virus, read-out: 2a J6
Procedure: Evaluation of cell-based anti-HCV activity: Antiviral potency (EC50) was determined using a Renilla luciferase (RLuc)-based HCV replicon reporter assay. To perform the assay for genotype 1 and 2a JFH-1, HCV 1b RLuc cells (harboring a dicistronic genotype 1b Con1 replicon that encodes a RLuc reporter), or HCV 1a RLuc cells (harboring a dicistronic genotype 1a H77 replicon that encodes a RLuc reporter), or HCV 2a JFH-1 Rluc cells (harboring a dicistronic genotype 2a JFH-1 replicon that encodes a RLuc reporter) were dispensed into 384-well plates. To perform the assay for genotype 2a (with M31 present) or 2b, HCV 2a Rluc or 2b Rluc cells (both with M31 present) harboring a dicistronic NS5A chimeric genotype 2a JFH-1 replicon that encodes a RLuc reporter and either genotype 2a J6 strain NS5A gene or genotype 2b MD2b-1 NS5A gene (based on Los Alamos HCV database isolates, both with M31 present) respectively, were dispensed into 384-well plates. To perform the assay for genotype 3 and 4, HCV 3a RLuc or 4a Rluc cells harboring a dicistronic NS5A chimeric genotype 1b Con1 replicon that encodes a RLuc reporter and either a consensus genotype 3a NS5A gene or genotype 4a NS5A gene (based on Los Alamos HCV database isolates) respectively, were dispensed into 384-well plates. Compounds were re-suspended in DMSO at a concentration of 10 mM and serially diluted in DMSO either manually or using an automated pipeting instrument. Serially diluted compounds were mixed with cell culture media and added to the seeded cells. […] 72 hours later, cells were lysed and Renilla luciferase activity quantified as recommended by the manufacturer (Promega-Madison, Wis.). Non-linear regression was performed to calculate EC50 values.

[7] = read-out: 3a, genotype 3a replicon
[8] = 72 h, Table 2, genotype 1a H77 replicon, 72 hours
[9] = read-out: 3a, Table 2, genotype 3a NS5A chimeric replicon

| Compound | EC50 ([1]; genotype 1a replicon) [nM] | EC50 [2] [nM] | EC50 [3] [nM] | EC50 [4, 7] [nM] | EC50 [5] [nM] | EC50 [6] [nM] | EC50 [1, 8] [nM] | EC50 ([2]; 72 h) [nM] | EC50 ([3]; 72 h, Table 2, 72 hours) [nM] | EC50 [4, 9] [nM] |
| --- | --- | --- | --- | --- | --- | --- | --- | --- | --- | --- |
| COC(=O)N[C@H](C(=O)N1[C@@H]2CC[C@@H](C2)[C@H]1c1nc2ccc3cc(-c4ccc(-c5cnc([C@@H]6C[C@H]7C[C@H]7N6C(=O)[C@@H](NC(=O)OC)C6CCOCC6)[nH]5)c(F)c4)ccc3c2[nH]1)C(C)C [Example 392] | 0.001 to 0.999 | 0.022 | 0.001 to 0.999 | 1 to 4.99 | 0.001 to 0.99 | > 44 | – | – | – | – |
| COC(=O)N[C@H](C(=O)N1CCC[C@H]1c1ncc(-c2cc3c4c(c2)OCc2cc(-c5[nH]c([C@@H]6CCCN6C(=O)[C@@H](NC(=O)OC)C(C)C)nc5Cl)cc(c2-4)OC3)[nH]1)C(C)C [Example 389] | 0.001 to 0.999 | 0.015 | 0.001 to 0.999 | 0.001 to 0.99 | 0.001 to 0.99 | 1 to 44 | – | – | – | – |
| COC(=O)N[C@@H](C(=O)N1[C@@H]2CC[C@@H](C2)[C@H]1c1nc2ccc3cc(-c4ccc5c(ccc6nc([C@@H]7C[C@H]8C[C@H]8N7C(=O)[C@H](NC(=O)OC)c7ccccc7)[nH]c65)c4)ccc3c2[nH]1)c1ccccc1 [Example 406] | 0.001 to 0.999 | 0.017 | 0.001 to 0.999 | 0.001 to 0.99 | 0.001 to 0.99 | 0.001 to 0.999 | – | – | – | – |
| COC(=O)NC(C(=O)N1CCC[C@H]1c1ncc(-c2ccc(-c3ccc4c(ccc5nc([C@@H]6[C@H]7CC[C@H](C7)N6C(=O)[C@@H](NC(=O)OC)C(C)C)[nH]c54)c3)cc2)[nH]1)C(C)C (stereo partly drawn) [Example 65] | – | – | – | – | 0.001 to 0.99 | > 44 | 0.001 to 0.999 | 0.015 | 0.001 to 0.999 | 0.001 to 0.99 |
| COC(=O)N[C@H](C(=O)N1[C@@H]2CC[C@@H](C2)[C@H]1c1nc2ccc3cc(-c4ccc5c(ccc6nc([C@@H]7C[C@H]8C[C@H]8N7C(=O)[C@@H](NC(=O)OC)C(C)C)[nH]c65)c4)ccc3c2[nH]1)C(C)C [Example 405] | 0.001 to 0.999 | 0.009 | 0.001 to 0.999 | 0.001 to 0.99 | 0.001 to 0.99 | 1 to 44 | – | – | – | – |
| COC(=O)N[C@H](C(=O)N1[C@@H]2C[C@@H]2C[C@H]1c1ncc(-c2ccc(-c3ccc4c(ccc5nc([C@@H]6C[C@H]7C[C@H]7N6C(=O)[C@@H](NC(=O)OC)C(C)C)[nH]c54)c3)cc2F)[nH]1)C(C)C [Example 390] | 0.001 to 0.999 | 0.003 | 0.001 to 0.999 | 1 to 4.99 | 0.001 to 0.99 | > 44 | – | – | – | – |
| COC(=O)NC(C(=O)N1CCC[C@H]1c1ncc(-c2ccc(-c3ccc4c(ccc5nc([C@@H]6[C@H]7CC[C@H](C7)N6C(=O)[C@@H](NC(=O)OC)C(C)C)[nH]c54)c3)cc2)[nH]1)[C@@H](C)OC (stereo partly drawn) [Example 68] | – | – | – | – | 0.001 to 0.99 | 1 to 44 | 0.001 to 0.999 | 0.025 | 0.001 to 0.999 | 0.001 to 0.99 |
| COC(=O)N[C@H](C(=O)N1[C@@H]2CC[C@@H](C2)[C@H]1c1nc(Cl)c(-c2ccc(-c3ccc4c(ccc5nc([C@@H]6CCCN6C(=O)[C@H](NC(=O)OC)c6ccccc6)[nH]c54)c3)cc2)[nH]1)C(C)C [Example 401] | 0.001 to 0.999 | 0.015 | 0.001 to 0.999 | 0.001 to 0.99 | 0.001 to 0.99 | 1 to 44 | – | – | – | – |
| COC(=O)N[C@H](C(=O)N1CCC[C@H]1c1nc2ccc3cc(-c4ccc5c(c4)CCc4nc([C@@H]6CC7(CN6C(=O)[C@@H](NC(=O)OC)[C@@H](C)OC)OCCO7)[nH]c4-5)ccc3c2[nH]1)C(C)C [Example 83] | – | – | – | – | 0.001 to 0.99 | > 44 | 0.001 to 0.999 | 0.094 | 0.001 to 0.999 | 1 to 4.99 |
| COC(=O)N[C@H](C(=O)N1[C@@H]2CC[C@@H](C2)[C@H]1c1nc2ccc3cc(-c4ccc5c(ccc6nc([C@@H]7CCCN7C(=O)[C@H](NC(=O)OC)c7ccccc7)[nH]c65)c4)ccc3c2[nH]1)C1CCOCC1 [Example 345] | 0.001 to 0.999 | 0.066 | 0.001 to 0.999 | 0.001 to 0.99 | 0.001 to 0.99 | 0.001 to 0.999 | – | – | – | – |
| COC(=O)N[C@H](C(=O)N1[C@@H]2CC[C@@H](C2)[C@H]1c1ncc(-c2ccc(-c3ccc4c(ccc5nc([C@@H]6C[C@H]7C[C@H]7N6C(=O)[C@@H](NC(=O)OC)C(C)C)[nH]c54)c3)cc2)[nH]1)C(C)C [Example 98] | – | – | – | – | 0.001 to 0.99 | > 44 | 0.001 to 0.999 | 0.01 | 0.001 to 0.999 | 1 to 4.99 |
| COC(=O)N[C@H](C(=O)N1CCC[C@H]1c1ncc(-c2cc3c4c(c2)COc2cc(-c5cnc([C@@H]6CCCN6C(=O)[C@@H](NC(=O)OC)C(C)C)[nH]5)cc(c2-4)CC3)[nH]1)C(C)C [Example 370] | 0.001 to 0.999 | 0.028 | 0.001 to 0.999 | 0.001 to 0.99 | 0.001 to 0.99 | > 44 | – | – | – | – |
| COC(=O)N[C@H](C(=O)N1CCC[C@H]1c1nc2ccc3cc(-c4ccc(-c5cnc([C@@H]6[C@H]7CC[C@H](C7)N6C(=O)[C@@H](NC(=O)OC)C(C)C)[nH]5)cc4)ccc3c2[nH]1)C(C)C [Example 53] | – | – | – | – | 0.001 to 0.99 | > 44 | 0.001 to 0.999 | 0.01 | 0.001 to 0.999 | 0.001 to 0.99 |
| COC(=O)N[C@H](C(=O)N1CCC[C@H]1c1nc2ccc3cc(-c4ccc(-c5cnc([C@@H]6[C@H]7CC[C@H](C7)N6C(=O)[C@H](NC(=O)OC)c6ccccc6)[nH]5)cc4)ccc3c2[nH]1)C(C)C [Example 54] | – | – | – | – | 0.001 to 0.99 | > 44 | 0.001 to 0.999 | 0.014 | 0.001 to 0.999 | 0.001 to 0.99 |
| COC(=O)N[C@H](C(=O)N1[C@@H]2CC[C@@H](C2)[C@H]1c1nc2ccc3cc(-c4ccc(-c5cnc([C@@H]6C[C@H]7C[C@H]7N6C(=O)[C@@H](NC(=O)OC)C(C)C)[nH]5)c(F)c4)ccc3c2[nH]1)C(C)C [Example 391] | 0.001 to 0.999 | 0.009 | 0.001 to 0.999 | > 5 | 0.001 to 0.99 | > 44 | – | – | – | – |
| COC(=O)N[C@H](C(=O)N1CCC[C@H]1c1nc2ccc3cc(-c4ccc(-c5cnc([C@@H]6CC7(CN6C(=O)[C@H](C(C)C)C(C)C(=O)OC)OCCO7)[nH]5)cc4)ccc3c2[nH]1)[C@@H](C)OC (stereo partly drawn) [Example 80] | – | – | – | – | 0.001 to 0.99 | > 44 | 0.001 to 0.999 | 0.072 | 0.001 to 0.999 | 0.001 to 0.99 |
| COC(=O)N[C@H](C(=O)N1[C@@H]2CC[C@@H](C2)[C@H]1c1ncc(-c2ccc(-c3ccc4c(ccc5nc([C@@H]6CCCN6C(=O)[C@H](NC(=O)OC)c6ccccc6)[nH]c54)c3)cc2)[nH]1)C(C)C [Example 315] | 0.001 to 0.999 | 0.023 | 0.001 to 0.999 | 0.001 to 0.99 | 0.001 to 0.99 | 1 to 44 | – | – | – | – |
| COC(=O)N[C@H](C(=O)N1[C@@H]2CC[C@@H](C2)[C@H]1c1nc(Cl)c(-c2ccc(-c3ccc4c(ccc5nc([C@@H]6C[C@H]7C[C@H]7N6C(=O)[C@@H](NC(=O)OC)C(C)C)[nH]c54)c3)cc2)[nH]1)C(C)C [Example 381] | 0.001 to 0.999 | 0.008 | 0.001 to 0.999 | 0.001 to 0.99 | 0.001 to 0.99 | > 44 | – | – | – | – |
| COC(=O)N[C@H](C(=O)N1CCC[C@H]1c1ncc(-c2ccc3c(c2)COc2cc(-c4cnc([C@@H]5CCCN5C(=O)[C@@H](NC(=O)OC)C(C)C)[nH]4)cc(F)c2-3)[nH]1)C(C)C [Example 393] | 0.001 to 0.999 | 0.012 | 0.001 to 0.999 | 0.001 to 0.99 | 0.001 to 0.99 | > 44 | – | – | – | – |
